How the values were obtained:
fibrin = experiment: Incorporation of the radiolabeled compound into a fibrin clot (human fibrinogen, Factor XIII, human thrombin); format: biochemical; details: incubated about three and a half hours at about 37° C.; clot washed three times
Method: The radiolabeled amine compound N-(5-aminopentyl)-5-iodonaphthalenesulfonamide,I-125 is tested for its ability to be incorporated into fibrin.
The following solutions are mixed in a polystyrene test tube; (a) about 1 ml of a solution containing about 5 mg/ml of human fibrinogen (about 1.5×10^-5 M) and a tris-HCl buffer in a concentration of about 5×10^-3 M, the solution having a pH of about 7.4, (b) about 0.1 ml of a saline solution containing about 4×10^-2 units of blood Factor XIII, (c) about 0.1 ml of a 0.05 M cysteine solution having a pH of about 7.4, and (d) about 0.1 ml of a solution containing the N-(5-aminopentyl)-5-iodonaphthalenesulfonamide,I-125 compound in a concentration of about 2.3×10^-5 mmole and a radioactivity of about 1 μCi. Thereafter, about 0.2 ml of solution of about 0.05 M tris buffer and about 0.025 M CaCl2 which contains about 10 NIH units of human thrombin and has a pH of about 7.4 is added.
The resultant mixture is then incubated for about three and a half hours at about 37° C. whereupon a fibrin clot is formed. […] The radioactivity of the solution and the clot are then measured in a suitable detection apparatus. From these radioactivity measurements, it is determined that about 15% of the initial radioactivity is incorporated into the fibrin clot.

[1] = Stability towards deiodination and tissue incorporation after intravenous administration to rabbits; format: in vivo, New Zealand white rabbits; details: rabbit
Method: The radiolabeled amine compound N-(5-aminopentyl)-5-iodonaphthalenesulfonamide,I-`125 is tested for stability towards deiodination and for tissue incorporation by administering the compound to rabbits.
Two test solutions each of about 0.5 mCi of the above compound (spec. activity of about 1 mCi/mg) in about 1.45 ml of a physiological saline solution are prepared. A test solution is then intravenously administered to two New Zealand white rabbits, each weighing about 3 kg.
A blood sample is then taken from each rabbit at 12, 24, 36 and 72 hour periods after administration. The radioactivity of about 1 g of blood from samples for each time period is then measured. The measurements indicate that the radioactivity in the blood decreases slowly and that at about 72 hours after administration, about 20% of the initial radioactivity is still present in the blood. Due to the relatively slow disappearance of the subject compound from the bloodstream, the compound is therefore available in the bloodstream for a prolonged period of time which thereby increases its suitability to become incorporated into an occurring thrombus.
At the end of the 72 hour period, the rabbits are sacrificed and thereafter, the thyroid, liver, kidneys, lung, stomach wall, parotid glands, brains, muscle and bone tissue are removed and portions are measured for radioactivity. The thyroid contains only about 0.05% of the injected dose per gram which thereby indicates the stability of the subject compound towards deiodination. […] The liver contains about 0.04% and the gall bladder contains about 0.1% of the injected dose while the kidneys and the urine both contain about 0.3% of the dose.

blood clot factor XIII = experiment: In vitro incorporation of the radiolabeled compound in casein by blood clot factor XIII (Km, Lineweaver-Burke plot); format: biochemical
Method: Incorporation of the radiolabeled compound produced in Example I in fibrin by means of the blood clot factor XIII was investigated in vitro in the following manner:
To about 400 ul of a physiolgical salt solution containing 10 units of Factor XIII per ml, the following solutions were successively added; (a) about 500 ul of 0.5 molar solution of cystein in a buffer solution of tris(hydroxymethyl)aminomethane having a pH of 7.4, (b) about 100 ul of a buffer solution of tris (hydroxymethyl) aminomethane having a pH of about 7.4 and in which about 250 units of thrombine per ml had been dissolved, (c) about 1200 ul of a buffer solution of tris(hydroxymethyl) aminomethane, (d) about 50 ul of 0.4 molar solution of calcium chloride in water, and (e) about 200 ul of 5% solution of casein in water. […]
After incubation of the test solutions at about 37° C. for about 15 minutes, the reaction was discontinued by the addition of about 200 ul of a 1 molar solution of monoidoacetic acid which has been brought to a pH of about 7.4 by a sodium hydroxide solution. […] The radioactivity in the high-molecular fraction was then measured to determine if the radiolabeled sulfonamide compound had indeed been incorporated into the casein. […]

NCCCCCNS(=O)(=O)c1cccc2c([125I])cccc12 [N-(5-aminopentyl)-5-iodonaphthalenesulfonamide,I-125]
initial radioactivity incorporated into the fibrin clot (fibrin): about 15% | radioactivity in gall bladder ([1]; 72 hours): about 0.1 % of the injected dose | radioactivity in kidneys ([1]; 72 hours): about 0.3 % of the dose | radioactivity in liver ([1]; 72 hours): about 0.04 % of the injected dose | radioactivity in urine ([1]; 72 hours): about 0.3 % of the dose | initial radioactivity still present in the blood ([1]; about 0.5 mCi, about 72 hours after administration): about 20% | tissue uptake at 72 h ([1]; thyroid, 72 hours, indicates stability towards deiodination, read-out: radioactivity in thyroid): ~0.05 %ID/g

NCCCCCNS(=O)(=O)c1cccc2c([131I])cccc12 [N-(5-aminopentyl)-5-iodonaphthalene-1-sulfonamide-I-131]
incorporation in casein (in words) (blood clot factor XIII; casein): amply sufficient to be incorporated efficiently in casein | Km (blood clot factor XIII; casein as acceptor, 37° C., 15 minutes, pH 7.4, Lineweaver-Burke plot from measured radioactivity): 250 µM
